Assay results: US9439430B2, “Method of controlling resistant harmful plants” (priority 2012, dated 2016)

Tests used:
BIDSU = assay: Greenhouse test, pre-emergence (PE) soil application; assay type: in vivo, Bidens subalternans
Text: (§1) The 1:1 mixture of the two soil types was used specifically for cultivating small-seeded dicotyledonous weed since the standard field soil on its own tends to silt up, which may have an adverse effect on the emergence of small-seeded weeds. The resistances mentioned in the tables were confirmed beforehand in standard monitoring experiments. Nevertheless, the origins examined may have additional, hitherto unconfirmed resistances to various mechanisms of action.
(§2) The pots were then cultivated in a greenhouse (12-16 h light, temperature day 20-22° C., night 15-18° C.) until the time of application. The pots were treated at various BBCH stages of the seeds/plants on a laboratory track sprayer with spray liquors comprising the compositions according to the invention, mixtures of the prior art or the individual components. Application of the active compounds or active compound combinations and wetting agents formulated as WG, WP, EC or otherwise was carried out at the appropriate growth stages of the plants. The amount of water used for spray application was 100-600 l/ha. After the treatment, the plants were returned to the greenhouses and fertilized and watered as required. The pots were cultivated in a greenhouse (12-16 h light, temperature day 20-22° C., night 15-18° C.).
(§3) 3 weeks after the application, the foliar effect was evaluated on a scale of 0-100%:
(§4) 0%=no noticeable effect compared to untreated plants
(§5) 100%=full effect compared to untreated plants
(§6) The following abbreviations were used: • BBCH the BBCH code provides information about the morphological development stage of a plant. Officially, the abbreviation denotes the Biologische Bundesanstalt, Bundessortenamt and CHemische Industrie [Federal Biological Institute for Agriculture and Forestry, Federal Office for Crop Plant Varieties, Chemical Industry]. The range of BBCH 00-10 denotes the germination stages of the seeds until surface penetration. The range of BBCH 11-25 denotes the leaf development stages until stocking (corresponds to the number of tillers or side-shoots). • PE pre-emergence soil application; BBCH of the seeds/plants 00-10 • PO post-emergence application on the green parts of the plants; BBCH of the plants 11-25 • IU soil loamy silt—standard field soil • l/ha liters per hectare • S sensitive—the weed populations are sensitive to the active compounds tested • TSR target-site resistance. The weed populations comprise biotypes having a site-of-action-specific resistance, i.e. the binding site at the site of action is modified as a result of natural mutations in the gene sequence so that the active compounds are no longer able to bind, or bind in an unsatisfactory manner, and are therefore no longer able to act. • NTR non-target-site herbicide resistance; this is differentiated, inter alia, into EMR (Enhanced Metabolic Resistance) (the weed populations comprise biotypes having metabolic resistance, i.e. the plants are capable of metabolizing the active compounds more quickly via enzyme complexes, i.e. the active compounds are degraded more quickly in the plant), into reduced penetration into the plant, reduced translocation in the plant, accelerated excretion. […]

KCHSC [1] = assay: Greenhouse test, post-emergence (PO) application, foliar effect; assay type: in vivo, Kochia scoparia; conditions: (A) 50, (B) 20, mixture 50 + 20 g of AS/ha, 3 weeks after application
Text: as §1, §2, §3, §4, §5, §6

CHEAL = assay: Greenhouse test, pre-emergence (PE) soil application; assay type: in vivo, Chenopodium album; design: key: % effect: 0 = no effect, 100 = full effect vs untreated
Text: as §1, §2, §3, §4, §5, §6

AMATA = assay: Greenhouse test, post-emergence (PO) application, foliar effect; assay type: in vivo, Amaranthus rudis; conditions: (A) 50, (B) 20, mixture 50 + 20 g of AS/ha, 3 weeks after application
Text: as §1, §2, §3, §4, §5, §6

ALOMY = assay: as above; assay type: in vivo, Alopecurus myosuroides; conditions: ALOMY sensitive, (A) 50, (B) 20, mixture 50 + 20 g of AS/ha, 3 weeks after application
Text: as §1, §2, §3, §4, §5, §6

BRODI = assay: as above; assay type: in vivo, Bromus diformis; conditions: (A) 50, (B) 20, mixture 50 + 20 g of AS/ha, 3 weeks after application
Text: as §1, §2, §3, §4, §5, §6

KCHSC [2] = assay: Greenhouse test, pre-emergence (PE) soil application; assay type: in vivo, Kochia scoparia; design: key: % effect: 0 = no effect, 100 = full effect vs untreated
Text: as §1, §2, §3, §4, §5, §6

LOLSS = assay: Greenhouse test, post-emergence (PO) application, foliar effect; assay type: in vivo, Lolium spp.; conditions: (A) 50, (B) 20, mixture 50 + 20 g of AS/ha, 3 weeks after application
Text: as §1, §2, §3, §4, §5, §6

ERICA = assay: as above; assay type: in vivo, Erigeron canadensis; conditions: (A) 50, (B) 20, mixture 50 + 20 g of AS/ha, 3 weeks after application
Text: as §1, §2, §3, §4, §5, §6

[3] = test system: TTTTT (all resistant and sensitive biotypes); assay: Greenhouse test, PO application, mean over all resistant and sensitive biotypes; assay type: in vivo; conditions: (A) 50, (B) 20, mixture 50 + 20 g of AS/ha; for TTTTT resistant mean (effect): mean of resistant biotypes (n = 17 or n = 15); for TTTTT sensitive mean (effect): mean of sensitive biotypes (n = 11)
Text: as §1, §2, §3, §4, §5, §6

AMAPA = assay: Greenhouse test, post-emergence (PO) application, foliar effect; assay type: in vivo, Amaranthus palmeri; conditions: AMAPA resistant - group B (TSR), C1 (TSR) and G (NTR), (A) 50, (B) 20, mixture 50 + 20 g of AS/ha, 3 weeks after application
Text: as §1, §2, §3, §4, §5, §6

ERIBO [4] = assay: Greenhouse test, pre-emergence (PE) soil application; assay type: in vivo, Erigeron bonariensis; design: key: % effect: 0 = no effect, 100 = full effect vs untreated
Text: as §1, §2, §3, §4, §5, §6

EPHHL = assay: Greenhouse test, post-emergence (PO) application, foliar effect; assay type: in vivo, Euphorbia heterophylla; conditions: (A) 50, (B) 20, mixture 50 + 20 g of AS/ha, 3 weeks after application
Text: as §1, §2, §3, §4, §5, §6

ERIBO [5] = assay: as above; assay type: in vivo, Erigeron bonariensis; conditions: (A) 50, (B) 20, mixture 50 + 20 g of AS/ha, 3 weeks after application
Text: as §1, §2, §3, §4, §5, §6

APESV = assay: as above; assay type: in vivo, Apera spica-venti; conditions: (A) 50, (B) 20, mixture 50 + 20 g of AS/ha, 3 weeks after application
Text: as §1, §2, §3, §4, §5, §6

[6] = KCHSC resistant - group B (TSR)
[7] = AMATA resistant - group B (TSR), C1 (TSR)
[8] = BRODI resistant - group A (TSR), B (NTR) and G (NTR)
[9] = LOLSS resistant - group G (NTR)
[10] = LOLSS resistant group A (TSR, NTR), B (NTR) and C2 (NA)
[11] = LOLSS resistant group A (TSR, NTR), B (TSR, NTR) and C2 (NA)
[12] = ERICA resistant - group B (NA) and G (NTR)
[13] = EPHHL resistant - group B (TSR) and G (NTR)
[14] = EPHHL resistant - group B (TSR)
[15] = ERIBO resistant - group B (NA) and G (NTR)
[16] = APESV resistant - group B (TSR, NTR) and K1/3 (NA)
[17] = group (B) compound alone, 20 g of AS/ha

SMILES: Cc1ccc2c(c1)[C@H](Nc1nc(N)nc(C(C)F)n1)[C@@H](C)C2 (stereo partly drawn) [(A), indaziflam]
- effect on BIDSU sensitive (BIDSU; (A) alone, 12.5 g of AS/ha): 50
- foliar effect (KCHSC [1]; [6]): 30%
- foliar effect (KCHSC [1]; KCHSC sensitive): 30%
- effect on CHEAL resistant - group B (TSR), C1 (NA) and G (NTR) (CHEAL; (A) alone, 12.5 g of AS/ha): 65
- effect on CHEAL sensitive (CHEAL; (A) alone, 12.5 g of AS/ha): 70
- foliar effect (AMATA; [7]): 40%
- foliar effect (AMATA; AMATA sensitive): 50%
- foliar effect (ALOMY): 75%
- foliar effect (BRODI; [8]): 65%
- foliar effect (BRODI; BRODI sensitive): 70%
- effect on KCHSC resistant - group B (TSR) (KCHSC [2]; (A) alone, 12.5 g of AS/ha): 40
- effect on KCHSC sensitive (KCHSC [2]; (A) alone, 12.5 g of AS/ha): 40
- foliar effect (LOLSS; [9]): 65%
- foliar effect (LOLSS; [10]): 60%
- foliar effect (LOLSS; [11]): 60%
- foliar effect (LOLSS; LOLSS sensitive): 75%
- foliar effect (ERICA; [12]): 50%
- foliar effect (ERICA; ERICA sensitive): 50%
- TTTTT resistant mean (effect) [3]: 53%
- TTTTT sensitive mean (effect) [3]: 58%
- foliar effect (AMAPA): 50%
- effect on ERIBO resistant - group B (NA) and G (NTR) (ERIBO [4]; (A) alone, 12.5 g of AS/ha): 60
- effect on ERIBO sensitive (ERIBO [4]; (A) alone, 12.5 g of AS/ha): 70
- foliar effect (EPHHL; [13]): 50%
- foliar effect (EPHHL; [14]): 55%
- foliar effect (EPHHL; EPHHL sensitive): 60%
- foliar effect (ERIBO [5]; [15]): 50%
- foliar effect (ERIBO [5]; ERIBO sensitive): 50%
- foliar effect (APESV; [16]): 60%
- foliar effect (APESV; APESV sensitive): 65%

SMILES: COc1cc(OC)nc(NC(=O)NS(=O)(=O)c2ncccc2C(F)(F)F)n1 [(B1), flazasulfuron]
- effect on BIDSU sensitive (BIDSU; [17]): 80
- foliar effect (KCHSC [1]; [6]): 0%
- foliar effect (KCHSC [1]; KCHSC sensitive): 90%
- effect on CHEAL resistant - group B (TSR), C1 (NA) and G (NTR) (CHEAL; [17]): 60
- effect on CHEAL sensitive (CHEAL; [17]): 88
- foliar effect (AMATA; [7]): 50%
- foliar effect (AMATA; AMATA sensitive): 60%
- foliar effect (ALOMY): 100%
- foliar effect (BRODI; [8]): 75%
- foliar effect (BRODI; BRODI sensitive): 100%
- effect on KCHSC resistant - group B (TSR) (KCHSC [2]; [17]): 0
- effect on KCHSC sensitive (KCHSC [2]; [17]): 70
- foliar effect (LOLSS; [9]): 60%
- foliar effect (LOLSS; [10]): 60%
- foliar effect (LOLSS; [11]): 30%
- foliar effect (LOLSS; LOLSS sensitive): 95%
- foliar effect (ERICA; [12]): 50%
- foliar effect (ERICA; ERICA sensitive): 90%
- TTTTT resistant mean (effect) [3]: 40%
- TTTTT sensitive mean (effect) [3]: 87%
- foliar effect (AMAPA): 40%
- effect on ERIBO resistant - group B (NA) and G (NTR) (ERIBO [4]; [17]): 0
- effect on ERIBO sensitive (ERIBO [4]; [17]): 70
- foliar effect (EPHHL; [13]): 40%
- foliar effect (EPHHL; [14]): 30%
- foliar effect (EPHHL; EPHHL sensitive): 80%
- foliar effect (ERIBO [5]; [15]): 50%
- foliar effect (ERIBO [5]; ERIBO sensitive): 90%
- foliar effect (APESV; [16]): 30%
- foliar effect (APESV; APESV sensitive): 100%

SMILES: COc1cc(OC)nc(NC(=O)NS(=O)(=O)c2cc(NC=O)ccc2C(=O)N(C)C)n1 [(B2), foramsulfuron]
- effect on BIDSU sensitive (BIDSU; [17]): 30
- foliar effect (KCHSC [1]; [6]): 0%
- foliar effect (KCHSC [1]; KCHSC sensitive): 90%
- effect on CHEAL resistant - group B (TSR), C1 (NA) and G (NTR) (CHEAL; [17]): 40
- effect on CHEAL sensitive (CHEAL; [17]): 80
- foliar effect (AMATA; [7]): 90%
- foliar effect (AMATA; AMATA sensitive): 40%
- foliar effect (ALOMY): 100%
- foliar effect (BRODI; [8]): 75%
- foliar effect (BRODI; BRODI sensitive): 100%
- effect on KCHSC resistant - group B (TSR) (KCHSC [2]; [17]): 0
- effect on KCHSC sensitive (KCHSC [2]; [17]): 60
- foliar effect (LOLSS; [9]): 50%
- foliar effect (LOLSS; [10]): 60%
- foliar effect (LOLSS; [11]): 40%
- foliar effect (LOLSS; LOLSS sensitive): 100%
- foliar effect (ERICA; [12]): 40%
- foliar effect (ERICA; ERICA sensitive): 50%
- TTTTT resistant mean (effect) [3]: 34%
- TTTTT sensitive mean (effect) [3]: 74%
- foliar effect (AMAPA): 40%
- effect on ERIBO resistant - group B (NA) and G (NTR) (ERIBO [4]; [17]): 0
- effect on ERIBO sensitive (ERIBO [4]; [17]): 100
- foliar effect (EPHHL; [13]): 40%
- foliar effect (EPHHL; [14]): 30%
- foliar effect (EPHHL; EPHHL sensitive): 80%
- foliar effect (ERIBO [5]; [15]): 40%
- foliar effect (ERIBO [5]; ERIBO sensitive): 50%
- foliar effect (APESV; [16]): 0%
- foliar effect (APESV; APESV sensitive): 100%
